From paper PMC9457740, “GC-MS Chemical Profiling, Biological Investigation of Three Salvia Species Growing in Uzbekistan” (Molecules, 2022) come the findings set out here.

What all share (type): biochemical
Test [1] is described as follows: metal chelating assay (EDTA chelating activity). Conditions: mean ± S.D.; NA: not active. The source says:
(§1) Six in vitro assays were employed to evaluate the antioxidant activity of the three Salvia EOs. These were radical scavenging activity using 2,2-diphenyl-1-picryl-hydrazyl (DPPH), 2,2′-azino-bis(3-ethylbenzothiazoline-6-sulfonic acid) (ABTS) radical cation-based assay, total antioxidant capacity using cupric-reducing antioxidant capacity assay (CUPRAC), ferric-reducing antioxidant power assay (FRAP), EDTA chelating activity and phosphomolybdenum (PBD) assay.
(§2) In vitro assays were employed to evaluate the antioxidant activity of the three Salvia EOs using the 2,2-diphenyl-1-picryl-hydrazyl (DPPH), 2,2′-azino-bis(3-ethylbenzothiazoline-6-sulfonic acid) (ABTS) radical-cation-based assay, total antioxidant capacity using cupric-reducing antioxidant capacity assay (CUPRAC), ferric-reducing antioxidant power assay (FRAP), EDTA chelating activity and phosphomolybdenum (PBD) assay. These assays were performed according to previously described standard procedures, and values are expressed as Trolox or EDTA equivalent. The experimental procedures are given in supplemental materials. To provide a comparison with standard compounds, IC50 values (the half inhibitory concentration) were also calculated for DPPH, ABTS and metal chelating assays.

Test [2] is described as follows: ABTS radical cation-based assay. Conditions: mean ± S.D.
Text: as §1, §2

Test [3] can be described thus: ferric-reducing antioxidant power assay (FRAP). The note with it: concentration at which absorbance is 0.5; mean ± S.D.
Text: as §1, §2

Test [4] in a line: phosphomolybdenum (PBD) assay. The note with it: concentration at which absorbance is 0.5; mean ± S.D.
Text: as §1, §2

Test [5] is described as follows: cupric-reducing antioxidant capacity assay (CUPRAC). The note with it: concentration at which absorbance is 0.5; mean ± S.D.
Text: as §1, §2

Test [6] can be described thus: DPPH radical scavenging assay. Conditions: mean ± S.D. of three measurements; NA: not active.
Text: as §1, §2
For orientation: Loss of DPPH colour is used to gauge radical scavenging.

As to `O=C(O)CN(CCN(CC(=O)O)CC(=O)O)CC(=O)O` [EDTA], in test [1], the “Chelating IC50” value was found to be 40 ± 10 µg/mL.
Turning to `Cc1c(C)c2c(c(C)c1O)CCC(C)(C(=O)O)O2` (stereo not drawn) [Trolox], the “ABTS IC50” value in test [2] stood at 650 ± 90 µg/mL. Also, the “FRAP IC50” value in test [3] was determined as 170 ± 10 µg/mL. The “PBD IC50” value in test [4] was determined as 680 ± 10 µg/mL. The “CUPRAC IC50” value in test [5] was 440 ± 20 µg/mL. In test [6], the “DPPH IC50” value came out at 220 ± 10 µg/mL.
